Measured values: patent US6762197B2 (priority 1999, dated 2004)

Columns and labels:
Erysiphe graminis = Erysiphe graminis control effect test (Test Example 7, small-volume spray 200 L/ha on wheat); format: in vivo; conditions: 1000 ppm, emulsifiable formulation (Formulation Example 7), spray amount corresponding to 200 L/ha, wheat (NORIN No. 73), inoculated one day after, 7 days at 23° C.
Description: (§1) Test Examples 7 and 8 are tests using a small amount (corresponding 200 L/ha) of spray on plants, in which fine small liquid drops of a spray are uniformly adhere to the surface of a plant body and the extent of spraying is insufficient to for complete wetting of the surface of a plant body.
(§2) Controlling on a wheat disease in a field is so conducted in some cases that the spray liquid amount is about 200 L/ha. In this case, the amount of the sprayed liquid is insufficient for wetting of the whole plant body, and the sprayed liquid is adheres on a plant as fine liquid drops. For exerting high control effect on the subject diseases even under such spray condition, suitable physicochemical properties such as permeation transfer property, volatility and the like are required in addition to a basic effect.
(§3) In the following tests, compounds of the invention are represented by compound numbers described in Tables 1 to 8. The control effect of a compound of the invention was evaluated by visually observing the area of a lesion on a sample plant in investigation and comparing the area of a lesion in a non-treatment district and the area of a lesion in a districts treated with the compound of the invention.
(§4) Sand loam was compacted in a plastic pot, a wheat (NORIN No. 73) was seeded and grown in a green house for 10 days. […]

Sphaerotheca fuliginea = Sphaerotheca fuliginea control effect test (Test Example 6, large-volume foliar spray on cucumber); format: in vivo; conditions: 200 ppm, flowable (Formulation Example 6), sprayed on cucumber (SAGAMI HANJIRO) before inoculation, 12 days at 23° C.
Method: Test Examples 1 to 6 are tests using a large amount (about 2000 L/ha) of spray on plants, and the extent of spraying is so that the whole surface of a plant body is completely wet and the sprayed liquid drips.
as §3
Sand loam was compacted in a plastic pot, a cucumber (SAGAMI HANJIRO) was seeded and grown in a green house for 12 days. Then, the Compound 1 was formulated into flowable fomulation according the Formulation Example 6, then, diluted with water to provide given concentration (200 ppm), and this was sprayed onto stems and leaves so as to give sufficient adhesion on the surface of cucumber leaves. After spraying, the plant was air-dried, and Sphaerotheca fuliginea spores were inoculated. After inoculation, the plant was first left for 12 days at 23° C., then, the control effect was checked.

Puccinia striiformis = Puccinia striiformis control test (Test Example 8, small-volume spray 200 L/ha on wheat); format: in vivo; conditions: 1000 ppm, emulsifiable formulation (Formulation Example 7), spray amount corresponding to 200 L/ha, wheat (NORIN No. 73), 1 day dark high humidity at 23° C. then 6 days under illumination
Description: as §1, §2, §3, §4

| Structure (SMILES) | lesion in the treatment district (control effect) (Erysiphe graminis) | melting point | lesion area on plants relative to the lesion area of a non-treatment district (Sphaerotheca fuliginea) | lesion in the treatment district (control effect) (Puccinia striiformis) |
| --- | --- | --- | --- | --- |
| Cc1ccc(-c2ccccc2)cc1Cn1c(C(F)F)nn(C)c1=O [Compound 1, 5-difluoromethyl-2-methyl-4-(2-methyl-5-phenylbenzyl)-2,4-dihydro-3H-1,2,4-triazol-3-one] | no lesion was recognized at all | 72.7 °C | not more than 10% | no lesion was recognized at all |
| Cc1ccc(Br)cc1Cn1c(C(F)F)nn(C)c1=O |  | 107.6 °C |  |  |
